Among the data in patent US11944614B2, “Imidazo[4,5-c]pyridine compounds as LSD-1 inhibitors” (THE REGENTS OF THE UNIVERSITY OF MICHIGAN, priority 2018, dated 2024) are IC50 values, retold here.

The target of the assay is Human recombinant LSD1 protein (Homo sapiens (Human), UniProt O60341). Put plainly: LSD1 enzymatic activity, AlphaLISA demethylation assay. The assay is classed as biochemical. To be noted: 4 nM LSD1, 80 nM Biotin-H3K4Me peptide substrate, 1% DMSO, 60 minutes reaction. How it is done: Human recombinant LSD1 protein expressed in E. coli cells was purchased from Active Motif (Carlsbad, Calif.). Biotin-labeled Histone H3K4Me peptide (residues 1-21 with Lys 4 monomethylated) substrate was purchased from Anaspec (Fremont, Calif.). Enzymatic activity was assessed using the AlphaLISA technology from Perkin Elmer Life Sciences (Waltham, Mass.). 2.5 μL of compound solution and 5 μL of LSD1 solutions in the assay buffer (50 mM Tris, pH 9.0, 50 mM NaCl with 0.01% Tween20 and 1 mM DTT added right before the assay) were added into a white low volume 384 well microtiter plate. This mixture solution was incubated for 15 minutes with gentle shaking at room temperature. Demethylation reaction was initiated by adding 2.5 μL of Biotin-H3K4Me peptide substrate solution in the assay buffer. Final concentrations of LSD1, Biotin-H3K4Me peptide substrate, and DMSO were 4 nM, 80 nM, and 1%, respectively. The reaction was allowed to proceed for 60 minutes in dark with gentle shaking at room temperature, after which 5 μL of Anti-H3K4 AlphaLISA acceptor beads in detection buffer from the manufacturer was added into the reaction mixture followed by incubation for 60 minutes. 10 μL of Streptavidin labeled AlphaLISA donor beads in detection buffer was added into the mixture followed by 30-minute incubation. Final acceptor and donor beads concentrations were both at 10 μg/mL. Plates were read on a BMG CLARIOStar multimode plate reader from BMG Labtech (Ortenberg, Germany) with an excitation wavelength of 680 nm and emission wavelength of 615 nm. IC50 values of inhibitors were obtained by fitting the fluorescence intensity vs inhibitor concentrations in a sigmoidal dose-response curve (variable slope) with a non-linear regression using Prism 7 (La Jolla, Calif.).
For orientation: In Alpha technology, singlet oxygen from a donor bead excites a nearby acceptor bead.

What is called IC50 is the midpoint of a concentration-inhibition curve.

Turning to `N#Cc1ccc(-c2c(-c3ccc4c(c3)OCCO4)ncc3c2ncn3C[C@H]2CCNC2)cc1F` [compound 28, (S)-4-(6-(2,3-dihydrobenzo[b][1,4]dioxin-6-yl)-3-(pyrrolidin-3-ylmethyl)-3H-imidazo[4,5-c]pyridin-7-yl)-2-fluorobenzonitrile], the IC50 stood at 9.57 nM. For `CN1CCOc2cc(-c3ncc4c(ncn4CC4CCNC4)c3-c3ccc(C#N)cc3)ccc21` (stereo not drawn) [compound 32, 4-(6-(4-methyl-3,4-dihydro-2H-benzo[b][1,4]oxazin-7-yl)-3-(pyrrolidin-3-ylmethyl)-3H-imidazo[4,5-c]pyridin-7-yl)benzonitrile], the IC50 was 5.67 nM. The value for `Cn1ncc2cc(-c3ncc4c(ncn4CC4CCNCC4)c3-c3ccc(C#N)c(F)c3)ccc21` [Cpd. No. 19, 2-fluoro-4-(6-(1-methyl-1H-indazol-5-yl)-3-(piperidin-4-ylmethyl)-3H-imidazo[4,5-c]pyridin-7-yl)benzonitrile] was 11.8 nM; that for `Cn1ncc2cc(-c3ncc4c(ncn4C[C@H]4CCNC4)c3-c3ccc(C#N)cc3)ccc21` [compound 30, (S)-4-(6-(1-methyl-1H-indazol-5-yl)-3-(pyrrolidin-3-ylmethyl)-3H-imidazo[4,5-c]pyridin-7-yl)benzonitrile] was 39.8 nM. For the molecule `CN1CCOc2cc(-c3ncc4c(ncn4CC4CCNCC4)c3-c3ccc(C#N)cc3)ccc21` [compound 26, 4-(6-(4-methyl-3,4-dihydro-2H-benzo[b][1,4]oxazin-7-yl)-3-(piperidin-4-ylmethyl)-3H-imidazo[4,5-c]pyridin-7-yl)benzonitrile], the 50% inhibitory concentration (IC50) amounted to 14.7 nM. `CN1CCC(Cn2cnc3c(-c4ccc(C#N)cc4)c(-c4ccc5c(c4)OCO5)ncc32)CC1` [compound 14, 4-(6-(benzo[d][1,3]dioxol-5-yl)-3-((1-methylpiperidin-4-yl)methyl)-3H-imidazo[4,5-c]pyridin-7-yl)benzonitrile]: the IC50 was determined as 15.7 nM. Consider `CN1CCOc2cc(-c3ncc4c(ncn4CC4CCCNCC4)c3-c3ccc(C#N)cc3)ccc21` (stereo not drawn) [compound 24, 4-(3-(azepan-4-ylmethyl)-6-(4-methyl-3,4-dihydro-2H-benzo[b][1,4]oxazin-7-yl)-3H-imidazo[4,5-c]pyridin-7-yl)benzonitrile], for which the IC50 came to 11 nM. Turning to `CN1CCC(Cn2cnc3c(-c4ccc(C#N)cc4)c(-c4ccc5c(cnn5C)c4)ncc32)CC1` [compound 6, 4-(6-(1-methyl-1H-indazol-5-yl)-3-((1-methylpiperidin-4-yl)methyl)-3H-imidazo[4,5-c]pyridin-7-yl)benzonitrile], the IC50 is 66.3 nM.

Regarding `CN1CCC(Cn2cnc3c(-c4ccc(C#N)c(F)c4)c(-c4ccc5c(cnn5C)c4)ncc32)CC1` [Cpd. No. 1, 2-fluoro-4-(6-(1-methyl-1H-indazol-5-yl)-3-((1-methylpiperidin-4-yl)methyl)-3H-imidazo[4,5-c]pyridin-7-yl)benzonitrile], the half-maximal inhibitory concentration (IC50) came to 40.1 nM.

As for `CN1CCC(Cn2cnc3c(-c4ccc(C#N)cc4)c(-c4ccc5c(cnn5C)c4)ncc32)C1` (stereo not drawn) [compound 31, 4-(6-(1-methyl-1H-indazol-5-yl)-3-((1-methylpyrrolidin-3-yl)methyl)-3H-imidazo[4,5-c]pyridin-7-yl)benzonitrile], the half-inhibitory concentration (IC50) was 87.2 nM. Take `CN1CCOc2cc(-c3ncc4c(ncn4C[C@H]4CCNC4)c3-c3ccc(C#N)c(F)c3)ccc21` [compound 17, (S)-2-fluoro-4-(6-(4-methyl-3,4-dihydro-2H-benzo[b][1,4]oxazin-7-yl)-3-(pyrrolidin-3-ylmethyl)-3H-imidazo[4,5-c]pyridin-7-yl)benzonitrile]: the IC50 is 12.1 nM. The value for `CN1CCC(Cn2cnc3c(-c4ccc(C#N)c(F)c4)c(-c4ccc5c(c4)OCO5)ncc32)CC1` [compound 15, 4-(6-(benzo[d][1,3]dioxol-5-yl)-3-((1-methylpiperidin-4-yl)methyl)-3H-imidazo[4,5-c]pyridin-7-yl)-2-fluorobenzonitrile] was 27.8 nM; that for `CN1CCC(Cn2cnc3c(-c4ccc(C#N)c(F)c4)c(-c4ccc5c(ccn5C)c4)ncc32)CC1` [compound 2, 2-fluoro-4-(6-(1-methyl-1H-indol-5-yl)-3-((1-methylpiperidin-4-yl)methyl)-3H-imidazo[4,5-c]pyridin-7-yl)benzonitrile] was 237 nM; that for `Cn1ncc2cc(-c3ncc4c(ncn4CC4CCCNCC4)c3-c3ccc(C#N)c(F)c3)ccc21` (stereo not drawn) [compound 21, 4-(3-(azepan-4-ylmethyl)-6-(1-methyl-1H-indazol-5-yl)-3H-imidazo[4,5-c]pyridin-7-yl)-2-fluorobenzonitrile] was 17.3 nM.

Take `CN1CCOc2cc(-c3ncc4c(ncn4CC4CCCNCC4)c3-c3ccc(C#N)c(F)c3)ccc21` (stereo not drawn) [compound 23, 4-(3-(azepan-4-ylmethyl)-6-(4-methyl-3,4-dihydro-2H-benzo[b][1,4]oxazin-7-yl)-3H-imidazo[4,5-c]pyridin-7-yl)-2-fluorobenzonitrile]: the half-maximal inhibitory concentration (IC50) came out at 13 nM. On to `CN1CCOc2cc(-c3ncc4c(ncn4CC4CCNCC4)c3-c3ccc(C#N)c(F)c3)ccc21` [compound 25, 2-fluoro-4-(6-(4-methyl-3,4-dihydro-2H-benzo[b][1,4]oxazin-7-yl)-3-(piperidin-4-ylmethyl)-3H-imidazo[4,5-c]pyridin-7-yl)benzonitrile], for which the IC50 was 8.01 nM.

As to `Cn1ncc2cc(-c3ncc4c(ncn4CC4CCNCC4)c3-c3ccc(C#N)cc3)ccc21` [compound 20, 4-(6-(1-methyl-1H-indazol-5-yl)-3-(piperidin-4-ylmethyl)-3H-imidazo[4,5-c]pyridin-7-yl)benzonitrile], the IC50 was found to be 13.7 nM.

As to `CN1CCOc2ccc(-c3ncc4c(ncn4C[C@H]4CCNC4)c3-c3ccc(C#N)c(F)c3)cc21` [compound 29, (S)-2-fluoro-4-(6-(4-methyl-3,4-dihydro-2H-benzo[b][1,4]oxazin-6-yl)-3-(pyrrolidin-3-ylmethyl)-3H-imidazo[4,5-c]pyridin-7-yl)benzonitrile], the concentration for half-maximal inhibition (IC50) worked out at 47 nM. As to `CN1CCC(Cn2cnc3c(-c4ccc(C#N)cc4)c(-c4ccc5c(ccn5C)c4)ncc32)CC1` [compound 7, 4-(6-(1-methyl-1H-indol-5-yl)-3-((1-methylpiperidin-4-yl)methyl)-3H-imidazo[4,5-c]pyridin-7-yl)benzonitrile], the IC50 amounted to 68 nM. Regarding `Cc1nc2cc(-c3ncc4c(ncn4CC4CCN(C)CC4)c3-c3ccc(C#N)c(F)c3)ccc2s1` [compound 5, 2-fluoro-4-(6-(2-methylbenzo[d]thiazol-5-yl)-3-((1-methylpiperidin-4-yl)methyl)-3H-imidazo[4,5-c]pyridin-7-yl)benzonitrile], the 50% inhibitory concentration (IC50) was 928 nM.

Take `CN1CCC(Cn2cnc3c(-c4ccc(C#N)c(F)c4)c(-c4ccc5nn(C)cc5c4)ncc32)CC1` [compound 12, 2-fluoro-4-(6-(2-methyl-2H-indazol-5-yl)-3-((1-methylpiperidin-4-yl)methyl)-3H-imidazo[4,5-c]pyridin-7-yl)benzonitrile]: the IC50 was determined as 97.6 nM.

Regarding `CN1CCC(Cn2cnc3c(-c4ccc(C#N)c(F)c4)c(-c4ccc5c(c4)OCCN5C)ncc32)CC1` [compound 8, 2-fluoro-4-(6-(4-methyl-3,4-dihydro-2H-benzo[b][1,4]oxazin-7-yl)-3-((1-methylpiperidin-4-yl)methyl)-3H-imidazo[4,5-c]pyridin-7-yl)benzonitrile], the 50% inhibitory concentration (IC50) worked out at 16.2 nM. As for `CN1CCC(Cn2cnc3c(-c4ccc(C#N)cc4)c(-c4ccc(C#N)cc4)ncc32)CC1` [compound 9, 4,4′-(3-((1-methylpiperidin-4-yl)methyl)-3H-imidazo[4,5-c]pyridine-6,7-diyl)dibenzonitrile], the IC50 was over 1000 nM.

In the case of `CN1CCC(Cn2cnc3c(-c4ccc(C#N)c(F)c4)c(-c4ccc5c(c4)CC(=O)N5C)ncc32)CC1` [compound 3, 2-fluoro-4-(6-(1-methyl-2-oxoindolin-5-yl)-3-((1-methylpiperidin-4-yl)methyl)-3H-imidazo[4,5-c]pyridin-7-yl)benzonitrile], the IC50 is 220 nM. For `Cn1ncc2cc(-c3ncc4c(ncn4CC4CCCNCC4)c3-c3ccc(C#N)cc3)ccc21` (stereo not drawn) [compound 22, 4-(3-(azepan-4-ylmethyl)-6-(1-methyl-1H-indazol-5-yl)-3H-imidazo[4,5-c]pyridin-7-yl)benzonitrile], the IC50 was found to be 16.2 nM.

For `CN1CCC(Cn2cnc3c(-c4ccc(C#N)cc4)c(-c4ccc5nn(C)cc5c4)ncc32)CC1` [compound 13, 4-(6-(2-methyl-2H-indazol-5-yl)-3-((1-methylpiperidin-4-yl)methyl)-3H-imidazo[4,5-c]pyridin-7-yl)benzonitrile], the IC50 was found to be 115 nM. Turning to `CN1CC[C@H](Cn2cnc3c(-c4ccc(C#N)c(F)c4)c(-c4ccc5c(c4)OCCN5C)ncc32)C1` [compound 18, (S)-2-fluoro-4-(6-(4-methyl-3,4-dihydro-2H-benzo[b][1,4]oxazin-7-yl)-3-((1-methylpyrrolidin-3-yl)methyl)-3H-imidazo[4,5-c]pyridin-7-yl)benzonitrile], the IC50 was 12 nM.
